Holding throughout (assay type): functional, cell-based
In test [1] the test system is M96. Put plainly: Cytotoxicity was evaluated against melanoma M96 cell-line by MTT assay. The note with it: Homo sapiens. A general note: Tetrazolium assays rely on reduction of a dye to a coloured formazan, in cell work by metabolically active cells.
Test [2] has as its system E39. Put plainly: Cytotoxicity was evaluated against renal E39 cell-line by MTT assay. The note with it: Homo sapiens.
In test [3] the test system is Lung NSCLC-N6 cell-line. Put plainly: Cytotoxicity was evaluated against lung NSCLC-N6 cell-line by MTT assay. The following applies: Homo sapiens.
Test [4] concerns P388. The experiment in a line: Cytotoxicity was evaluated against leukemia P388 cell-line by MTT assay. The following applies: Mus musculus.

The structures appear in SMILES notation. In brackets after ≈: the same amount, converted by molar mass.

For orientation: IC50 means the concentration needed to halve the response being measured. A lower IC50 goes with greater potency. Regarding `CCCCCCCCCCCCCCC(N)CN` (centres undefined), the IC50 is 7.8 µg/mL (≈ 30.4 µM) in test [1], 5.3 µg/mL (≈ 20.7 µM) in test [2], 1.1 µg/mL (≈ 4.29 µM) in test [3] and 0.1 µg/mL (≈ 0.39 µM) in test [4].
